Test results from ChEMBL document CHEMBL4507284, “Data for DCP probe BI-1230” (2021).

Columns and labels:
[1] = target: Tyrosine-protein kinase ABL1 (Homo sapiens) (UniProt P00519); settings: Compound concentration 1000.0 nM
[2] = target: Activin receptor type-1-like (Homo sapiens) (UniProt P37023); settings: Compound concentration 1000.0 nM
[3] = target: Serine/threonine-protein kinase BRSK2 (Homo sapiens) (UniProt Q8IWQ3); settings: Compound concentration 1000.0 nM
[4] = target: Tyrosine-protein kinase BTK (Homo sapiens) (UniProt Q06187); settings: Compound concentration 1000.0 nM
[5] = target: Calcium/calmodulin-dependent protein kinase kinase 2 (Homo sapiens) (UniProt Q96RR4); settings: Compound concentration 1000.0 nM
[6] = target: Cyclin-dependent kinase 4 (Homo sapiens) (UniProt P11802); settings: Compound concentration 1000.0 nM
Chain of Cyclin-dependent kinase 4 (Homo sapiens) (P11802 whole entry): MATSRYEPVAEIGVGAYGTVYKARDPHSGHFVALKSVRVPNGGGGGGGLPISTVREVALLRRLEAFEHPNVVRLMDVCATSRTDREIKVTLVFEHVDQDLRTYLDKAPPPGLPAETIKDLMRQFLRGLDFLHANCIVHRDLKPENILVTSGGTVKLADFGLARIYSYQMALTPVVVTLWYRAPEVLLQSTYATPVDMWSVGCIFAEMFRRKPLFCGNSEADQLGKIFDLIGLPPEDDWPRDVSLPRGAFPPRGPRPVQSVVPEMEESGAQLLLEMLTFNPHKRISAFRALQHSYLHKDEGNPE

[7] = target: Cyclin-dependent kinase 4 (Homo sapiens) (UniProt P11802); settings: Compound concentration 1000.0 nM; remark: listed apart in the source
[8] = target: Cyclin-dependent kinase 5 (Homo sapiens) (UniProt Q00535); settings: Compound concentration 1000.0 nM
[9] = target: Casein kinase I isoform alpha (Homo sapiens) (UniProt P48729); settings: Compound concentration 1000.0 nM
[10] = target: Casein kinase I isoform gamma-2 (Homo sapiens) (UniProt P78368); settings: Compound concentration 1000.0 nM
Chain of Casein kinase I isoform gamma-2 (Homo sapiens) (P78368 whole entry, looked up, canonical isoform): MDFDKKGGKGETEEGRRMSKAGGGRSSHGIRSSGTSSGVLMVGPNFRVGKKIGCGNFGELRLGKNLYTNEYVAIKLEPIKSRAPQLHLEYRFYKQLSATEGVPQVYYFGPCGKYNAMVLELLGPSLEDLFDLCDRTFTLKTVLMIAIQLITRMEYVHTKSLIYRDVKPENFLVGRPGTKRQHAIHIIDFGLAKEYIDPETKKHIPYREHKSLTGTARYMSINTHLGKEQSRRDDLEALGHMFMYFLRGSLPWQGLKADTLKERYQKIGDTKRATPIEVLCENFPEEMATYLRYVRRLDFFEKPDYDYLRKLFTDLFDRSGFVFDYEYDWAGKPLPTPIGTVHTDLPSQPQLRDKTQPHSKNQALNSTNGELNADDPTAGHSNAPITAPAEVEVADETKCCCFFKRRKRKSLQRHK

[11] = target: Death-associated protein kinase 3 (Homo sapiens) (UniProt O43293); settings: Compound concentration 1000.0 nM
[12] = target: Serine/threonine-protein kinase 17A (Homo sapiens) (UniProt Q9UEE5); settings: Compound concentration 1000.0 nM
[13] = target: Mitogen-activated protein kinase 4 (Homo sapiens) (UniProt P31152); settings: Compound concentration 1000.0 nM
[14] = target: Beta-adrenergic receptor kinase 1 (Homo sapiens) (UniProt P25098); settings: Compound concentration 1000.0 nM
[15] = target: Glycogen synthase kinase-3 alpha (Homo sapiens) (UniProt P49840); settings: Compound concentration 1000.0 nM
[16] = tested on: Mast/stem cell growth factor receptor Kit (Homo sapiens), P10721 [V559D,T670I]; settings: Compound concentration 1000.0 nM
[17] = target: Tyrosine-protein kinase Lck (Homo sapiens) (UniProt P06239); settings: Compound concentration 1000.0 nM
[18] = target: LIM domain kinase 2 (Homo sapiens) (UniProt P53671); settings: Compound concentration 1000.0 nM
[19] = target: Tyrosine-protein kinase Lyn (Homo sapiens) (UniProt P07948); settings: Compound concentration 1000.0 nM
[20] = target: MAP kinase-activated protein kinase 5 (Homo sapiens) (UniProt Q8IW41); settings: Compound concentration 1000.0 nM
[21] = target: Hepatocyte growth factor receptor (Homo sapiens) (UniProt P08581); settings: Compound concentration 1000.0 nM
[22] = target: Serine/threonine-protein kinase 24 (Homo sapiens) (UniProt Q9Y6E0); settings: Compound concentration 1000.0 nM
[23] = target: Myosin light chain kinase family member 4 (Homo sapiens) (UniProt Q86YV6); settings: Compound concentration 1000.0 nM
Chain of Myosin light chain kinase family member 4 (Homo sapiens) (Q86YV6 whole entry): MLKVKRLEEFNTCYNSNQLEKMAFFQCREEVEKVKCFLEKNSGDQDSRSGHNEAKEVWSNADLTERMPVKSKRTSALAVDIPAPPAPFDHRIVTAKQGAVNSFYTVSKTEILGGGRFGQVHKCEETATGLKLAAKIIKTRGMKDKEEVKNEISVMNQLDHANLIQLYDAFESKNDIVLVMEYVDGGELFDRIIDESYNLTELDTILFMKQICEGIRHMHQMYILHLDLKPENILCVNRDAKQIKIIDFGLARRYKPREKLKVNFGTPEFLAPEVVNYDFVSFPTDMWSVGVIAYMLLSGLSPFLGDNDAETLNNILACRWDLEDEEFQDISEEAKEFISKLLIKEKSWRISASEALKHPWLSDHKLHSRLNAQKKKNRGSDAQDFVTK

[24] = target: Serine/threonine-protein kinase Nek1 (Homo sapiens) (UniProt Q96PY6); settings: Compound concentration 1000.0 nM
[25] = target: Serine/threonine-protein kinase Nek7 (Homo sapiens) (UniProt Q8TDX7); settings: Compound concentration 1000.0 nM
[26] = target: Serine/threonine-protein kinase NLK (Homo sapiens) (UniProt Q9UBE8); settings: Compound concentration 1000.0 nM
[27] = target: Serine/threonine-protein kinase PAK 4 (Homo sapiens) (UniProt O96013); settings: Compound concentration 1000.0 nM
[28] = target: Phosphorylase b kinase regulatory subunit alpha, liver isoform (Homo sapiens) (UniProt P46019); settings: Compound concentration 1000.0 nM
[29] = tested on: Phosphatidylinositol 4,5-bisphosphate 3-kinase catalytic subunit alpha isoform (Homo sapiens), P42336 [H1047Y]; settings: Compound concentration 1000.0 nM
Chain of Phosphatidylinositol 4,5-bisphosphate 3-kinase catalytic subunit alpha isoform (Homo sapiens), P42336 [H1047Y] (P42336 whole entry H1047Y, canonical isoform): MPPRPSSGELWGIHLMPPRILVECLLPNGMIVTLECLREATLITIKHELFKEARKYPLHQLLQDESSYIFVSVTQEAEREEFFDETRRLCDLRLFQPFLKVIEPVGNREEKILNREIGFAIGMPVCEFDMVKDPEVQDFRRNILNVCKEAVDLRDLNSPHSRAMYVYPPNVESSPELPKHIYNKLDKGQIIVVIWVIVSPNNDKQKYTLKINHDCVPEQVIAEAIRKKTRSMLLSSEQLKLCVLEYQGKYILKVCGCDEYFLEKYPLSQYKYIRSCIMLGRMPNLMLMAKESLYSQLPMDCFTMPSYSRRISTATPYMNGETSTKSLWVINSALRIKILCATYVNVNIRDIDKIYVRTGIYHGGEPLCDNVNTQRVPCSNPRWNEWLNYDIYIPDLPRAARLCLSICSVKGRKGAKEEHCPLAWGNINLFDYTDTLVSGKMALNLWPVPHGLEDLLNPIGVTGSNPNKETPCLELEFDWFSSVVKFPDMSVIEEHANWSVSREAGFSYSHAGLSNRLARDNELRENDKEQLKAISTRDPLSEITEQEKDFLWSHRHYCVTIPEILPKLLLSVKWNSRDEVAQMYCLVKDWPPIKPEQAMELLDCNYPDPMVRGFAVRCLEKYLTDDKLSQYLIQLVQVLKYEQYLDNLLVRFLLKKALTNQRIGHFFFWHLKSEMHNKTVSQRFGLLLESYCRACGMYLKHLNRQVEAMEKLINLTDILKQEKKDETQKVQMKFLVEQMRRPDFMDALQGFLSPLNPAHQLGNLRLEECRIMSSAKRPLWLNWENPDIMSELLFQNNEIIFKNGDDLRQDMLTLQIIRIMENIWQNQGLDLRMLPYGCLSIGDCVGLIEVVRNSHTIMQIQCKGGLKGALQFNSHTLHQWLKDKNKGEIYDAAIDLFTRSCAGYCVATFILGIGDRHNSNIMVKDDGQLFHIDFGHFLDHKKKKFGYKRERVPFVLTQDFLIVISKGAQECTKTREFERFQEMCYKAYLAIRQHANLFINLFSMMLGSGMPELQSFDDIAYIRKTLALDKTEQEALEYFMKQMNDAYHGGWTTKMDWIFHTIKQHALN

[30] = target: 1-phosphatidylinositol 3-phosphate 5-kinase (Homo sapiens) (UniProt Q9Y2I7); settings: Compound concentration 1000.0 nM
[31] = target: Serine/threonine-protein kinase pim-1 (Homo sapiens) (UniProt P11309); settings: Compound concentration 1000.0 nM
[32] = target: Serine/threonine-protein kinase PknB (Mycobacterium tuberculosis) (UniProt P9WI81); settings: Compound concentration 1000.0 nM
[33] = target: Protein kinase C delta type (Homo sapiens) (UniProt Q05655); settings: Compound concentration 1000.0 nM
[34] = target: Serine/threonine-protein kinase RIO2 (Homo sapiens) (UniProt Q9BVS4); settings: Compound concentration 1000.0 nM
[35] = target: Rho-associated protein kinase 2 (Homo sapiens) (UniProt O75116); settings: Compound concentration 1000.0 nM
[36] = target: Serine/threonine-protein kinase SBK1 (Homo sapiens) (UniProt Q52WX2); settings: Compound concentration 1000.0 nM
[37] = target: SNF-related serine/threonine-protein kinase (Homo sapiens) (UniProt Q9NRH2); settings: Compound concentration 1000.0 nM
[38] = target: Tyrosine-protein kinase Srms (Homo sapiens) (UniProt Q9H3Y6); settings: Compound concentration 1000.0 nM
Chain of Tyrosine-protein kinase Srms (Homo sapiens) (Q9H3Y6 whole entry): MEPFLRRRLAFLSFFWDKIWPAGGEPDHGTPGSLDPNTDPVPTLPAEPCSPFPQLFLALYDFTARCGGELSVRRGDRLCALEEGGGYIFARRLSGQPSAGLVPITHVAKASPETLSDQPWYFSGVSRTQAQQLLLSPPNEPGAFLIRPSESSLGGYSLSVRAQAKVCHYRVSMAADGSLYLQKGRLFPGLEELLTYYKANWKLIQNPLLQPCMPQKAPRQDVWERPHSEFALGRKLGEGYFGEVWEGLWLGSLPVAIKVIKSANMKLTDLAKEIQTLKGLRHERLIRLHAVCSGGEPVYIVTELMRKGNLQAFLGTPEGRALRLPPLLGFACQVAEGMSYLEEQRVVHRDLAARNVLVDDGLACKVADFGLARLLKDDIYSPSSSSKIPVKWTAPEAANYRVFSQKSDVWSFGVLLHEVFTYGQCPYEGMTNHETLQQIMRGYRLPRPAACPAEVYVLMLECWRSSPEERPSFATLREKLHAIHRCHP

[39] = target: Serine/threonine-protein kinase TBK1 (Homo sapiens) (UniProt Q9UHD2); settings: Compound concentration 1000.0 nM
[40] = target: Dual specificity testis-specific protein kinase 1 (Homo sapiens) (UniProt Q15569); settings: Compound concentration 1000.0 nM
[41] = target: Serine/threonine-protein kinase tousled-like 2 (Homo sapiens) (UniProt Q86UE8); settings: Compound concentration 1000.0 nM
[42] = target: NT-3 growth factor receptor (Homo sapiens) (UniProt Q16288); settings: Compound concentration 1000.0 nM
[43] = target: Serine/threonine-protein kinase WNK3 (Homo sapiens) (UniProt Q9BYP7); settings: Compound concentration 1000.0 nM
Chain of Serine/threonine-protein kinase WNK3 (Homo sapiens) (Q9BYP7 whole entry): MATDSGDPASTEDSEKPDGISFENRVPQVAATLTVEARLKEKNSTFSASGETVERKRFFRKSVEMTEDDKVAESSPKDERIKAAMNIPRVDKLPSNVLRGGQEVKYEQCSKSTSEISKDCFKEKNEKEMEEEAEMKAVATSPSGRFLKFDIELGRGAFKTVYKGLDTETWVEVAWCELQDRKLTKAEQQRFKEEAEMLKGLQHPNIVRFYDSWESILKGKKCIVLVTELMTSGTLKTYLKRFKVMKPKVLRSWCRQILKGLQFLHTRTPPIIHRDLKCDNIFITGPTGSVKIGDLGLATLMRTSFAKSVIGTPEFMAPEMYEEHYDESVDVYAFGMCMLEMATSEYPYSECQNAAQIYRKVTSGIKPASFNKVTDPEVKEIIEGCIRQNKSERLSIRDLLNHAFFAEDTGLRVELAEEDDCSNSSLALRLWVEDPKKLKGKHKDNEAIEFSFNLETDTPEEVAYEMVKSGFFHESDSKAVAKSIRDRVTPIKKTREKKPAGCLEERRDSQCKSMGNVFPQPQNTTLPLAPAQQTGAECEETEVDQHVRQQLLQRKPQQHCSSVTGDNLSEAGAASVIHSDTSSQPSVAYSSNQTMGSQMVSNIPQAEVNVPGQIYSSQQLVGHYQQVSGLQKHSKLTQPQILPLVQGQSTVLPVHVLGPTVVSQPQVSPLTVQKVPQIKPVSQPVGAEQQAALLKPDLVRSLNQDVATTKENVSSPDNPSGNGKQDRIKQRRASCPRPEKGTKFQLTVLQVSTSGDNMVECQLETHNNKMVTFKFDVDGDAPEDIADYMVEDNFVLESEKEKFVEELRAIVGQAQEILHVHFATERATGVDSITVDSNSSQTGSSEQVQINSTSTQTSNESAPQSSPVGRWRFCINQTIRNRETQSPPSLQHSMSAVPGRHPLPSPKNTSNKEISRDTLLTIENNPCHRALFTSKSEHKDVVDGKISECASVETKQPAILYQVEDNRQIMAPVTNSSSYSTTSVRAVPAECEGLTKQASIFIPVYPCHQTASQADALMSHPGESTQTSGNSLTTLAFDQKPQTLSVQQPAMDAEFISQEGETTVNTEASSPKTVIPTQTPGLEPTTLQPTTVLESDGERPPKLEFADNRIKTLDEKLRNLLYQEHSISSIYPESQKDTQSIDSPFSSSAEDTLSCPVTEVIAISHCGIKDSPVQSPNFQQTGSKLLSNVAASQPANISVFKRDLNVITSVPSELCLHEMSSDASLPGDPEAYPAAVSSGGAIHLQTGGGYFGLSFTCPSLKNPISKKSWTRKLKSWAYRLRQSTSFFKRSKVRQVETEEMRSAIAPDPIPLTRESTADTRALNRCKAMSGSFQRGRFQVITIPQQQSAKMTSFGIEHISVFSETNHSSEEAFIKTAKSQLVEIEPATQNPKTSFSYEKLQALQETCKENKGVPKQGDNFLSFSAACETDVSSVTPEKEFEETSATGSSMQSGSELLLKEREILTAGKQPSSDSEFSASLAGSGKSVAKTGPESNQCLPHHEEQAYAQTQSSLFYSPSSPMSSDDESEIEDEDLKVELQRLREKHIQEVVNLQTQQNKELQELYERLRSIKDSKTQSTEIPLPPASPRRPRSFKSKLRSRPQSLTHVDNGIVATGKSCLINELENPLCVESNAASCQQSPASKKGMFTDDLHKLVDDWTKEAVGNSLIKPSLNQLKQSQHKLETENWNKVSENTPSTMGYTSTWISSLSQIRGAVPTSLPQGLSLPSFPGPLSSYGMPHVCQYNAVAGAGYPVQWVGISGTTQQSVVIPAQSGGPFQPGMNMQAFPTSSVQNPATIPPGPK

[44] = target: Serine/threonine-protein kinase 32B (Homo sapiens) (UniProt Q9NY57); settings: Compound concentration 1000.0 nM
[45] = target: 5-hydroxytryptamine receptor 1E (Homo sapiens) (UniProt P28566); settings: Compound concentration 10.0 uM
Chain of 5-hydroxytryptamine receptor 1E (Homo sapiens) (P28566 whole entry): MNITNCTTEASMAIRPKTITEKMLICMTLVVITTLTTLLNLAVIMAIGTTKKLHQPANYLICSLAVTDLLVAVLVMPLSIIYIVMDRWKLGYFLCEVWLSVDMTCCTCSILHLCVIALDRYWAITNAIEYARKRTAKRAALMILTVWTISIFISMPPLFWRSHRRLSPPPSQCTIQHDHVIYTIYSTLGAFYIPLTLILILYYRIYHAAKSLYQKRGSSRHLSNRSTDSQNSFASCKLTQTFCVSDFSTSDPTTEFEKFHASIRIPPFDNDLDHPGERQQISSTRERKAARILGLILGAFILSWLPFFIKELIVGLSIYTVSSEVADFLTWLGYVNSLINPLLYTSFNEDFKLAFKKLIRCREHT

[46] = target: Muscarinic acetylcholine receptor M1 (Homo sapiens) (UniProt P11229); settings: Compound concentration 10.0 uM

COc1ccc2c(O[C@@H]3C[C@H]4C(=O)N[C@]5(C(=O)O)CC5/C=C\CCCCC[C@H](NC(=O)OC5CCCC5)C(=O)N4C3)cc(-c3csc(NC(=O)C(C)C)n3)nc2c1C (some centres not stated) [BI 1230]
inactive: residual activity [1] 93% | residual activity [2] 97% | residual activity [3] 100% | residual activity [4] 85% | residual activity [5] 100% | residual activity [6] 100% | residual activity [7] 88% | residual activity [8] 97% | residual activity [9] 68% | residual activity [10] 90% | residual activity [11] 100% | residual activity [12] 99% | residual activity [13] 93% | residual activity [14] 83% | residual activity [15] 100% | residual activity [16] 76% | residual activity [17] 100% | residual activity [18] 100% | residual activity [19] 94% | residual activity [20] 88% | residual activity [21] 99% | residual activity [22] 100% | residual activity [23] 81% | residual activity [24] 100% | residual activity [25] 100% | residual activity [26] 99% | residual activity [27] 99% | residual activity [28] 100% | residual activity [29] 100% | residual activity [30] 100% | residual activity [31] 97% | residual activity [32] 94% | residual activity [33] 84% | residual activity [34] 100% | residual activity [35] 95% | residual activity [36] 98% | residual activity [37] 80% | residual activity [38] 98% | residual activity [39] 86% | residual activity [40] 91% | residual activity [41] 100% | residual activity [42] 97% | residual activity [43] 100% | residual activity [44] 100% | inhibition [45] 14.9% | inhibition [46] 8.82%

O=C(N[C@H]1CCCCC/C=C\C2C[C@@]2(C(=O)O)NC(=O)[C@@H]2C[C@@H](Oc3ccncc3)CN2C1=O)OC1CCCC1 (some centres not stated) [BI 1675]
inactive: residual activity [1] 97% | residual activity [2] 84% | residual activity [3] 100% | residual activity [4] 100% | residual activity [5] 95% | residual activity [6] 100% | residual activity [7] 89% | residual activity [8] 77% | residual activity [9] 80% | residual activity [10] 63% | residual activity [11] 100% | residual activity [12] 100% | residual activity [13] 100% | residual activity [14] 51% | residual activity [15] 100% | residual activity [16] 100% | residual activity [17] 100% | residual activity [18] 93% | residual activity [19] 87% | residual activity [20] 96% | residual activity [21] 60% | residual activity [22] 81% | residual activity [23] 100% | residual activity [24] 100% | residual activity [25] 100% | residual activity [26] 100% | residual activity [27] 99% | residual activity [28] 100% | residual activity [29] 100% | residual activity [30] 100% | residual activity [31] 100% | residual activity [32] 93% | residual activity [33] 100% | residual activity [34] 100% | residual activity [35] 100% | residual activity [36] 100% | residual activity [37] 97% | residual activity [38] 100% | residual activity [39] 100% | residual activity [40] 97% | residual activity [41] 100% | residual activity [42] 100% | residual activity [43] 100% | residual activity [44] 99% | inhibition [45] 0% | inhibition [46] 14.1%
